Data from patent US7871631B2, “Methods of inhibiting the lowering of antihuman TNF-α antibody” (Ajinomoto Co., Inc., priority 2004, dated 2011).

Tests used:
[1] = system: patient with small intestine/large intestine type Crohn's disease; assay: Clinical case: repeated administration of Infliximab under enteral administration of ELENTAL, Crohn's disease activity index (CDAI) and ulcer findings; assay type: in vivo, human; settings: for CDAI two weeks later: ELENTAL continued
Method: A patient is a person, and they are the patient with small intestine/large intestine type Crohn's disease that began. By August 2002, Crohn's disease repeatedly recurred and they were hospitalized three times.
In July 2002, since Crohn's disease recurred again accompanied by stomachache, diarrhea and fever, 5 mg/kg of Infliximab (REMICADE® (trademark) 100 for drip infusion) under the enteral administration of 1200 kcal of ELENTAL® (trademark) was administered to the patient. The clinical activity index of Crohn's disease before the administration was 186 (150 or higher fall into the active stage). However, the index was lowered to 67 two weeks after the administration. During the period, an open longitudinal ulcer(s) seen in the transverse colon and sigmoid colon was cicatrized. After that, thought the patient was treated with the home enteral nutritional therapy, the symptoms recurred in February 2003 and CDAI increased up to 230. Continuing the enteral administration of ELENTAL® (trademark), Infliximab (5 mg/kg) was administered for the second time. Then, CDAI was lowered again to 63 two weeks later. […] Therefore, Infliximab (5 mg/kg) was administered for the third time, and CDAI was lowered to 80 two weeks later. Before and after the administration for the third time, it was confirmed that an open ulcer(s) of the sigmoid colon was cicatrized. Similarly, though CDAI increased in the 50th week, 68th week and 83rd week from the first administration, CDAI of 147 to 275 decreased to 50 to 80 […] by the fourth, fifth and sixth time administrations of Infliximab. During that time, administration of ELENTAL was continued.
Usually, the repeated administration of Infliximab promotes production of antibody and, therefore, its effect weakens in the repeated administration.

[2] = system: patient with small intestine/large intestine type Crohn's disease

## Infliximab
[1]; February 2003, after first Infliximab administration, under home enteral nutritional therapy, before second administration
  CDAI at recurrence of symptoms: 230
[1]; before and after the third administration of Infliximab 5 mg/kg under ELENTAL
  open ulcer(s) of the sigmoid colon: cicatrized
[1]; during the two weeks after first administration of Infliximab 5 mg/kg under ELENTAL
  open longitudinal ulcer(s) in the transverse colon and sigmoid colon: cicatrized
[1]; first administration, Infliximab 5 mg/kg drip infusion under enteral ELENTAL 1200 kcal, index before administration 186 (150 or higher = active stage)
  clinical activity index of Crohn's disease (CDAI) two weeks after the administration: 67
[1]; second administration of Infliximab 5 mg/kg, CDAI before 230
  CDAI two weeks later: 63
[1]; third administration of Infliximab 5 mg/kg, CDAI before 250
  CDAI two weeks later: 80
[1]; two months after second administration, before third administration
  CDAI increase under administration of ELENTAL: 250
[2]; first to sixth administration of Infliximab with ELENTAL
  tuberculosis bacterium infection: not seen
[2]; human, in vivo
  infection in organs of respiration or in a urinary tract: no finding of indication of infection
